Experimental data reported in ChEMBL document CHEMBL4311962, “Benzofuran-isatin hybrids and their in vitro anti-mycobacterial activities against multi-drug resistant Mycobacterium tuberculosis” (Eur J Med Chem, 2019).

Key:
[1] = Cytotoxicity against CHO cells assessed as reduction in cell viability incubated for 72 hrs by MTT assay; assay type: cell-based, Cricetulus griseus; conditions: chinese hamster
[2] = Metabolic stability in SPF ICR mouse liver microsomes assessed as half life […]; assay type: ADME, Microsome
[3] = Tmax in SPF ICR mouse at 25 mg/kg, po administered as single dose measured for 0.25 to 24 hrs; assay type: ADME, organism-based; conditions: in vivo
[4] = Cmax in SPF ICR mouse at 25 mg/kg, po administered as single dose measured for 0.25 to 24 hrs; assay type: ADME, organism-based; design: dose 25 mg/kg, route oral; conditions: in vivo
[5] = Elimination half life in SPF ICR mouse at 25 mg/kg, po administered as single dose measured for 0.25 to 24 hrs; assay type: ADME, organism-based; conditions: in vivo, read-out: beta t1/2 (converted)
[6] = AUC (0 to infinity) in SPF ICR mouse at 25 mg/kg, po administered as single dose measured for 0.25 to 24 hrs; assay type: ADME, organism-based; design: dose 25 mg/kg, time infinity, route oral; conditions: in vivo

Work on CCOC(=O)c1c(-c2ccccc2)oc2ccc(OCCCN3C(=O)/C(=N/O)c4ccccc43)cc12 yielded a CC50 at 72 h [1] of 512 µM.

With CCOC(=O)c1c(-c2ccc(F)cc2)oc2ccc(OCCCCCCN3C(=O)/C(=N/OC)c4ccccc43)cc12 the CC50 at 72 h [1] was 128 µM.

CNC(=O)c1c(-c2ccc(O)cc2)oc2ccc(O)c(CN3CCCCC3)c12 gave a half-life [2] greater than 1 h and a CC50 at 72 h [1] greater than 1020 µM.

Compound CCOC(=O)c1c(-c2ccc(F)cc2)oc2ccc(OCCCN3C(=O)/C(=N/O)c4ccccc43)cc12 has a CC50 at 72 h [1] of 256 µM.

CCOC(=O)c1c(-c2ccccc2)oc2ccc(OCCCN3C(=O)C(=O)c4cc(OC)ccc43)cc12 gave a CC50 at 72 h [1] of 512 µM.

Compound CCOC(=O)c1c(-c2ccc(OC)cc2)oc2ccc(OCCCN3C(=O)C(=O)c4cc(F)ccc43)cc12 has a CC50 at 72 h [1] of 64 µM.

In the case of CCOC(=O)c1c(-c2ccc(F)cc2)oc2ccc(OCCCCCCN3C(=O)C(=O)c4cc(OC)ccc43)cc12, the CC50 at 72 h [1] is reported as 256 µM.

Work on CCOC(=O)c1c(-c2ccccc2)oc2ccc(OCCCN3C(=O)/C(=N/O)c4cc(OC)ccc43)cc12 yielded a CC50 at 72 h [1] of 512 µM.

Work on CCOC(=O)c1c(-c2ccc(F)cc2)oc2ccc(OCCCN3C(=O)C(=O)c4ccccc43)cc12 yielded a CC50 at 72 h [1] of 256 µM.

Work on CCOC(=O)c1c(-c2ccc(F)cc2)oc2ccc(OCCCCCCN3C(=O)/C(=N\O)c4cc(OC)ccc43)cc12 yielded a CC50 at 72 h [1] of 512 µM.

Work on CCOC(=O)c1c(-c2ccc(OC)cc2)oc2ccc(OCCCCCCN3C(=O)/C(=N/NC(N)=S)c4cc(F)ccc43)cc12 yielded a Tmax [3] of 1.81 h, a Cmax [4] of 2540 ng/mL and a half-life [5] of 2.32 h. For the same compound, the AUC(0-inf) [6] was 3800 ng·h/mL, the half-life [2] was 0.29 h and the CC50 at 72 h [1] was 128 µM.

In the case of CCO/N=C1\C(=O)N(CCCCCCOc2ccc3oc(-c4ccc(F)cc4)c(C(=O)OCC)c3c2)c2ccc(OC)cc21, the CC50 at 72 h [1] is reported as 256 µM.

Work on CCOC(=O)c1c(-c2ccc(F)cc2)oc2ccc(OCCN3C(=O)C(=O)c4cc(OC)ccc43)cc12 yielded a CC50 at 72 h [1] of 512 µM.

Work on CCOC(=O)c1c(-c2ccccc2)oc2ccc(OCCN3C(=O)C(=O)c4cc(F)ccc43)cc12 yielded a CC50 at 72 h [1] of 64 µM.

CCOC(=O)c1c(-c2ccccc2)oc2ccc(OCCCCCCN3C(=O)C(=O)c4ccccc43)cc12 gave a CC50 at 72 h [1] of 128 µM.

For CCOC(=O)c1c(-c2ccc(OC)cc2)oc2ccc(OCCCCN3C(=O)C(=O)c4ccccc43)cc12, the CC50 at 72 h [1] was 256 µM.

For CCOC(=O)c1c(-c2ccc(OC)cc2)oc2ccc(OCCCCCN3C(=O)C(=O)c4ccccc43)cc12, the CC50 at 72 h [1] was 128 µM.

For CCOC(=O)c1c(-c2ccc(F)cc2)oc2ccc(OCCN3C(=O)C(=O)c4ccccc43)cc12, the CC50 at 72 h [1] was 128 µM.

Work on CCOC(=O)c1c(-c2ccccc2)oc2ccc(OCCCN3C(=O)C(=O)c4ccccc43)cc12 yielded a CC50 at 72 h [1] of 256 µM.

With CCOC(=O)c1c(-c2ccc(F)cc2)oc2ccc(OCCN3C(=O)C(=O)c4cc(F)ccc43)cc12 the CC50 at 72 h [1] was 64 µM.

With NNC(=O)c1ccncc1 [ISONIAZID] the CC50 at 72 h [1] was 256 µM.

For CO[C@H]1/C=C/O[C@@]2(C)Oc3c(C)c(O)c4c(O)c(c(/C=N/N5CCN(C)CC5)c(O)c4c3C2=O)NC(=O)/C(C)=C\C=C\[C@H](C)[C@H](O)[C@@H](C)[C@@H](O)[C@@H](C)[C@H](OC(C)=O)[C@@H]1C [RIFAMPIN], the CC50 at 72 h [1] was 512 µM.
